# According to ChEMBL document CHEMBL4002643, “Tubulin-binding dibenz[c,e]oxepines: Part 2. Structural variation and biological evaluation as tumour vasculature disrupting agents” (Bioorg Med Chem, 2017):
# Tests used:
# [1] = Inhibition of porcine tubulin assembly measured for 30 mins by UV/visible spectrophotometric method; design: species or system Sus scrofa
# CCRF-CEM = assay: Cytotoxicity against human CCRF-CEM cells assessed as growth inhibition after 48 hrs by SRB assay; format: functional
# HL-60(TB) = assay: Cytotoxicity against human HL-60(TB) cells assessed as growth inhibition after 48 hrs by SRB assay; format: functional; settings: HL-60, 48 h
# K562 = assay: Cytotoxicity against human K562 cells assessed as growth inhibition after 48 hrs by SRB assay; format: functional; settings: K562, 48 h
# MOLT-4 = assay: Cytotoxicity against human MOLT4 cells assessed as growth inhibition after 48 hrs by SRB assay; format: functional; settings: MOLT-4, 48 h
# RPMI-8226 = assay: Cytotoxicity against human RPMI8226 cells assessed as growth inhibition after 48 hrs by SRB assay; format: functional; settings: RPMI-8226, 48 h
# A549 = assay: Cytotoxicity against human A549 cells assessed as growth inhibition after 48 hrs by SRB assay; format: functional; settings: A549, 48 h
# HOP-62 = assay: Cytotoxicity against human HOP62 cells assessed as growth inhibition after 48 hrs by SRB assay; format: functional; settings: HOP-62, 48 h
# NCI-H226 = assay: Cytotoxicity against human NCI-H226 cells assessed as growth inhibition after 48 hrs by SRB assay; format: functional; settings: NCI-H226, 48 h
# NCI-H23 = assay: Cytotoxicity against human NCI-H23 cells assessed as growth inhibition after 48 hrs by SRB assay; format: functional; settings: NCI-H23, 48 h
# NCI-H322M = assay: Cytotoxicity against human NCI-H322M cells assessed as growth inhibition after 48 hrs by SRB assay; format: functional
# NCI-H522 = assay: Cytotoxicity against human NCI-H522 cells assessed as growth inhibition after 48 hrs by SRB assay; format: functional; settings: NCI-H522, 48 h
# COLO 205 = assay: Cytotoxicity against human COLO205 cells assessed as growth inhibition after 48 hrs by SRB assay; format: functional; settings: COLO 205, 48 h
# HCT-116 = assay: Cytotoxicity against human HCT116 cells assessed as growth inhibition after 48 hrs by SRB assay; format: functional; settings: HCT-116, 48 h
# HCT-15 = assay: Cytotoxicity against human HCT15 cells assessed as growth inhibition after 48 hrs by SRB assay; format: functional; settings: HCT-15, 48 h
# KM12 = assay: Cytotoxicity against human KM12 cells assessed as growth inhibition after 48 hrs by SRB assay; format: functional; settings: KM12, 48 h
# SW-620 = assay: Cytotoxicity against human SW620 cells assessed as growth inhibition after 48 hrs by SRB assay; format: functional; settings: SW-620, 48 h
# SF-268 = assay: Cytotoxicity against human SF268 cells assessed as growth inhibition after 48 hrs by SRB assay; format: functional; settings: SF-268, 48 h
# SF-295 = assay: Cytotoxicity against human SF295 cells assessed as growth inhibition after 48 hrs by SRB assay; format: functional; settings: SF-295, 48 h
# SF-539 = assay: Cytotoxicity against human SF539 cells assessed as growth inhibition after 48 hrs by SRB assay; format: functional; settings: SF-539, 48 h
# SNB-19 = assay: Cytotoxicity against human SNB19 cells assessed as growth inhibition after 48 hrs by SRB assay; format: functional; settings: SNB-19, 48 h
# SNB-75 = assay: Cytotoxicity against human SNB75 cells assessed as growth inhibition after 48 hrs by SRB assay; format: functional; settings: SNB-75, 48 h
# U-251 = assay: Cytotoxicity against human U251 cells assessed as growth inhibition after 48 hrs by SRB assay; format: functional; settings: U-251, 48 h
# LOX IMVI = assay: Cytotoxicity against human LOXIMVI cells assessed as growth inhibition after 48 hrs by SRB assay; format: functional
# M14 = assay: Cytotoxicity against human M14 cells assessed as growth inhibition after 48 hrs by SRB assay; format: functional; settings: M14, 48 h
# MDA-MB-435 = assay: Cytotoxicity against human MDA-MB-435 cells assessed as growth inhibition after 48 hrs by SRB assay; format: functional; settings: MDA-MB-435, 48 h
# SK-MEL-2 = assay: Cytotoxicity against human SK-MEL-2 cells assessed as growth inhibition after 48 hrs by SRB assay; format: functional; settings: SK-MEL-2, 48 h
# SK-MEL-28 = assay: Cytotoxicity against human SK-MEL-28 cells assessed as growth inhibition after 48 hrs by SRB assay; format: functional; settings: SK-MEL-28, 48 h
# SK-MEL-5 = assay: Cytotoxicity against human SK-MEL-5 cells assessed as growth inhibition after 48 hrs by SRB assay; format: functional; settings: SK-MEL-5, 48 h
# UACC-257 = assay: Cytotoxicity against human UACC257 cells assessed as growth inhibition after 48 hrs by SRB assay; format: functional; settings: UACC-257, 48 h
# IGROV-1 = assay: Cytotoxicity against human IGROV1 cells assessed as growth inhibition after 48 hrs by SRB assay; format: functional; settings: IGROV-1, 48 h
# OVCAR-3 = assay: Cytotoxicity against human OVCAR3 cells assessed as growth inhibition after 48 hrs by SRB assay; format: functional; settings: OVCAR-3, 48 h
# OVCAR-8 = assay: Cytotoxicity against human OVCAR8 cells assessed as growth inhibition after 48 hrs by SRB assay; format: functional; settings: OVCAR-8, 48 h
# SK-OV-3 = assay: Cytotoxicity against human SKOV3 cells assessed as growth inhibition after 48 hrs by SRB assay; format: functional; settings: SK-OV-3, 48 h
# A498 = assay: Cytotoxicity against human A498 cells assessed as growth inhibition after 48 hrs by SRB assay; format: functional; settings: A498, 48 h
# RXF 393 = assay: Cytotoxicity against human RXF393 cells assessed as growth inhibition after 48 hrs by SRB assay; format: functional; settings: RXF 393, 48 h
# SN12C = assay: Cytotoxicity against human SN12C cells assessed as growth inhibition after 48 hrs by SRB assay; format: functional
# UO-31 = assay: Cytotoxicity against human UO31 cells assessed as growth inhibition after 48 hrs by SRB assay; format: functional; settings: UO-31, 48 h
# DU-145 = assay: Cytotoxicity against human DU145 cells assessed as growth inhibition after 48 hrs by SRB assay; format: functional; settings: DU-145, 48 h
# PC-3 = assay: Cytotoxicity against human PC3 cells assessed as growth inhibition after 48 hrs by SRB assay; format: functional; settings: PC-3, 48 h
# BT-549 = assay: Cytotoxicity against human BT549 cells assessed as growth inhibition after 48 hrs by SRB assay; format: functional; settings: BT-549, 48 h
# Hs-578T = assay: Cytotoxicity against human Hs 578T cells assessed as growth inhibition after 48 hrs by SRB assay; format: functional
# MCF7 = assay: Cytotoxicity against human MCF7 cells assessed as growth inhibition after 48 hrs by SRB assay; format: functional; settings: MCF7, 48 h
# MDA-MB-231 = assay: Cytotoxicity against human MDA-MB-231 cells assessed as growth inhibition after 48 hrs by SRB assay; format: functional; settings: MDA-MB-231, 48 h
# MDA-MB-468 = assay: Cytotoxicity against human MDA-MB-468 cells assessed as growth inhibition after 48 hrs by SRB assay; format: functional; settings: MDA-MB-468, 48 h
# T47D = assay: Cytotoxicity against human T47D cells assessed as growth inhibition after 48 hrs by SRB assay; format: functional
compound,measurement,setting,value
COc1ccc2c(c1)COCc1cc(OC)c(OC)c(OC)c1-2,IC50,[1],7400 nM
same,GI50,CCRF-CEM,80 nM
same,GI50,HL-60(TB),40 nM
same,GI50,K562,40 nM
same,GI50,MOLT-4,90 nM
same,GI50,RPMI-8226,330 nM
same,GI50,A549,130 nM
same,GI50,HOP-62,1120 nM
same,GI50,NCI-H226,1580 nM
same,GI50,NCI-H23,440 nM
same,GI50,NCI-H322M,2040 nM
same,GI50,NCI-H522,280 nM
same,GI50,COLO 205,110 nM
same,GI50,HCT-116,50 nM
same,GI50,HCT-15,80 nM
same,GI50,KM12,50 nM
same,GI50,SW-620,50 nM
same,GI50,SF-268,460 nM
same,GI50,SF-295,60 nM
same,GI50,SF-539,160 nM
same,GI50,SNB-19,980 nM
same,GI50,SNB-75,90 nM
same,GI50,U-251,100 nM
same,GI50,LOX IMVI,210 nM
same,GI50,M14,50 nM
same,GI50,MDA-MB-435,30 nM
same,GI50,SK-MEL-2,100 nM
same,GI50,SK-MEL-28,80 nM
same,GI50,SK-MEL-5,30 nM
same,GI50,UACC-257,> 100000 nM
same,GI50,IGROV-1,850 nM
same,GI50,OVCAR-3,50 nM
same,GI50,OVCAR-8,310 nM
same,GI50,SK-OV-3,130 nM
same,GI50,A498,170 nM
same,GI50,RXF 393,80 nM
same,GI50,SN12C,830 nM
same,GI50,UO-31,15100 nM
same,GI50,DU-145,180 nM
same,GI50,PC-3,480 nM
same,GI50,BT-549,200 nM
same,GI50,Hs-578T,240 nM
same,GI50,MCF7,40 nM
same,GI50,MDA-MB-231,590 nM
same,GI50,MDA-MB-468,30 nM
same,GI50,T47D,> 100000 nM
COc1ccc2c(c1O)COCc1cc(OC)c(OC)c(OC)c1-2,IC50,[1],2200 nM
same,GI50,CCRF-CEM,40 nM
same,GI50,HL-60(TB),30 nM
same,GI50,K562,40 nM
same,GI50,MOLT-4,60 nM
same,GI50,RPMI-8226,320 nM
same,GI50,A549,350 nM
same,GI50,HOP-62,630 nM
same,GI50,NCI-H226,3470 nM
same,GI50,NCI-H23,760 nM
same,GI50,NCI-H322M,520 nM
same,GI50,NCI-H522,40 nM
same,GI50,COLO 205,500 nM
same,GI50,HCT-116,320 nM
same,GI50,HCT-15,80 nM
same,GI50,KM12,50 nM
same,GI50,SW-620,50 nM
same,GI50,SF-268,90 nM
same,GI50,SF-295,270 nM
same,GI50,SF-539,50 nM
same,GI50,SNB-19,140 nM
same,GI50,SNB-75,70 nM
same,GI50,U-251,300 nM
same,GI50,LOX IMVI,80 nM
same,GI50,M14,50 nM
same,GI50,MDA-MB-435,30 nM
same,GI50,SK-MEL-2,260 nM
same,GI50,SK-MEL-28,1580 nM
same,GI50,SK-MEL-5,40 nM
same,GI50,UACC-257,> 100000 nM
same,GI50,IGROV-1,630 nM
same,GI50,OVCAR-3,210 nM
same,GI50,OVCAR-8,200 nM
same,GI50,SK-OV-3,70 nM
same,GI50,A498,3020 nM
same,GI50,RXF 393,40 nM
same,GI50,SN12C,210 nM
same,GI50,UO-31,14500 nM
same,GI50,DU-145,60 nM
same,GI50,PC-3,280 nM
same,GI50,BT-549,260 nM
same,GI50,Hs-578T,40 nM
same,GI50,MCF7,70 nM
same,GI50,MDA-MB-231,270 nM
same,GI50,MDA-MB-468,220 nM
same,GI50,T47D,33900 nM
COc1ccc2c(c1OP(=O)([O-])[O-])COCc1cc(OC)c(OC)c(OC)c1-2.[Na+].[Na+],IC50,[1],1400 nM
same,GI50,CCRF-CEM,290 nM
same,GI50,HL-60(TB),320 nM
same,GI50,K562,280 nM
same,GI50,MOLT-4,400 nM
same,GI50,RPMI-8226,460 nM
same,GI50,A549,420 nM
same,GI50,HOP-62,790 nM
same,GI50,NCI-H226,2820 nM
same,GI50,NCI-H23,710 nM
same,GI50,NCI-H322M,1320 nM
same,GI50,NCI-H522,300 nM
same,GI50,COLO 205,620 nM
same,GI50,HCT-116,430 nM
same,GI50,HCT-15,440 nM
same,GI50,KM12,300 nM
same,GI50,SW-620,400 nM
same,GI50,SF-268,790 nM
same,GI50,SF-295,320 nM
same,GI50,SF-539,330 nM
same,GI50,SNB-19,510 nM
same,GI50,SNB-75,540 nM
same,GI50,U-251,480 nM
same,GI50,LOX IMVI,660 nM
same,GI50,M14,270 nM
same,GI50,MDA-MB-435,40 nM
same,GI50,SK-MEL-2,5370 nM
same,GI50,SK-MEL-28,890 nM
same,GI50,SK-MEL-5,260 nM
same,GI50,UACC-257,4680 nM
same,GI50,IGROV-1,4070 nM
same,GI50,OVCAR-3,280 nM
same,GI50,OVCAR-8,420 nM
same,GI50,SK-OV-3,400 nM
same,GI50,A498,18600 nM
same,GI50,RXF 393,210 nM
same,GI50,SN12C,720 nM
same,GI50,UO-31,19500 nM
same,GI50,DU-145,390 nM
same,GI50,PC-3,560 nM
same,GI50,BT-549,2240 nM
same,GI50,Hs-578T,240 nM
same,GI50,MCF7,400 nM
same,GI50,MDA-MB-231,710 nM
same,GI50,MDA-MB-468,1150 nM
same,GI50,T47D,8510 nM
